According to ChEMBL document CHEMBL1909294, “Translating clinical findings into knowledge in drug safety evaluation--drug induced liver injury prediction system (DILIps)” (PLoS Comput Biol, 2011):

Assays:
Hepatotoxicity [1] = test system: Hepatotoxicity;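 on HepSE Combined Scores: combined hepatic side effect score as listed in the training data of the Drug Induced Liver Injury Prediction System (DILIps)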;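 on HepSE cholecystitis: Cholecystitis-related hepatic side effect score drawn from the DILIps (drug-induced liver injury prediction) training data set; call rule not given here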;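 on HepSE cirrhosis: cirrhosis hepatic side effect score taken from the DILIps (drug-induced liver injury prediction) training set; call rule not given here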;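 on HepSE hepatitis: Hepatitis-related hepatic side effect score taken from the training data of DILIps, a prediction system for drug-induced liver injury; call rule not given here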;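 on HepSE hepatomegaly: hepatic side effect score for hepatomegaly, taken from the training set of the DILIps drug-induced liver injury prediction system; call rule not given here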;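 on HepSE jaundice: Jaundice-related hepatic side-effect score drawn from the training data of the DILIps (drug-induced liver injury prediction system); call rule not given here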; on HepSE liver disease: call rule not given here
Hepatotoxicity [2] = test system: Hepatotoxicity; remark: listed apart in the source;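 on HepSE Combined Scores: combined hepatic side effect score as listed in the training data of the Drug Induced Liver Injury Prediction System (DILIps)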;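 on HepSE cholecystitis: Cholecystitis-related hepatic side effect score drawn from the DILIps (drug-induced liver injury prediction) training data set; call rule not given here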;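 on HepSE cirrhosis: cirrhosis hepatic side effect score taken from the DILIps (drug-induced liver injury prediction) training set; call rule not given here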;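 on HepSE hepatitis: Hepatitis-related hepatic side effect score taken from the training data of DILIps, a prediction system for drug-induced liver injury; call rule not given here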;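 on HepSE hepatomegaly: hepatic side effect score for hepatomegaly, taken from the training set of the DILIps drug-induced liver injury prediction system; call rule not given here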;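 on HepSE jaundice: Jaundice-related hepatic side-effect score drawn from the training data of the DILIps (drug-induced liver injury prediction system); call rule not given here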; on HepSE liver disease: call rule not given here
Hepatotoxicity [3] = test system: Hepatotoxicity; remark: listed apart in the source;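 on HepSE Combined Scores: combined hepatic side effect score as listed in the training data of the Drug Induced Liver Injury Prediction System (DILIps)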;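 on HepSE cirrhosis: cirrhosis hepatic side effect score taken from the DILIps (drug-induced liver injury prediction) training set; call rule not given here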;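 on HepSE hepatitis: Hepatitis-related hepatic side effect score taken from the training data of DILIps, a prediction system for drug-induced liver injury; call rule not given here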;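 on HepSE hepatomegaly: hepatic side effect score for hepatomegaly, taken from the training set of the DILIps drug-induced liver injury prediction system; call rule not given here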;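 on HepSE jaundice: Jaundice-related hepatic side-effect score drawn from the training data of the DILIps (drug-induced liver injury prediction system); call rule not given here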; on HepSE liver disease: call rule not given here
Hepatotoxicity [4] = test system: Hepatotoxicity; remark: listed apart in the source;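 on HepSE Combined Scores: combined hepatic side effect score as listed in the training data of the Drug Induced Liver Injury Prediction System (DILIps)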;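 on HepSE cirrhosis: cirrhosis hepatic side effect score taken from the DILIps (drug-induced liver injury prediction) training set; call rule not given here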;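 on HepSE hepatitis: Hepatitis-related hepatic side effect score taken from the training data of DILIps, a prediction system for drug-induced liver injury; call rule not given here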;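 on HepSE hepatomegaly: hepatic side effect score for hepatomegaly, taken from the training set of the DILIps drug-induced liver injury prediction system; call rule not given here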;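 on HepSE jaundice: Jaundice-related hepatic side-effect score drawn from the training data of the DILIps (drug-induced liver injury prediction system); call rule not given here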; on HepSE liver disease: call rule not given here
Hepatotoxicity [5] = test system: Hepatotoxicity; remark: listed apart in the source; on HepSE liver disease: call rule not given here
Hepatotoxicity [6] = test system: Hepatotoxicity; remark: listed apart in the source; on HepSE liver disease: call rule not given here
Hepatotoxicity [7] = test system: Hepatotoxicity; remark: listed apart in the source
Hepatotoxicity [8] = test system: Hepatotoxicity; remark: listed apart in the source
Hepatotoxicity [9] = test system: Hepatotoxicity; remark: listed apart in the source
Hepatotoxicity [10] = test system: Hepatotoxicity; remark: listed apart in the source
Hepatotoxicity [11] = test system: Hepatotoxicity; remark: listed apart in the source
Hepatotoxicity [12] = test system: Hepatotoxicity; remark: listed apart in the source
Hepatotoxicity [13] = test system: Hepatotoxicity; remark: listed apart in the source
Hepatotoxicity [14] = test system: Hepatotoxicity; remark: listed apart in the source

| SMILES | HepSE_hepatitis (Hepatotoxicity [1]) | HepSE_jaundice (Hepatotoxicity [2]) | HepSE_hepatomegaly (Hepatotoxicity [3]) | HepSE_cirrhosis (Hepatotoxicity [4]) | HepSE_liver disease (Hepatotoxicity [5]) | HepSE_hepatic necrosis (Hepatotoxicity [6]) | HepSE_Combined Scores (Hepatotoxicity [7]) | HepSE_cholecystitis (Hepatotoxicity [8]) | HepSE_elevated liver function tests (Hepatotoxicity [9]) | HepSE_liver function tests abnormal (Hepatotoxicity [10]) | HepSE_liver fatty (Hepatotoxicity [11]) | HepSE_hepatic failure (Hepatotoxicity [12]) | HepSE_cholelithiasis (Hepatotoxicity [13]) | HepSE_bilirubinemia (Hepatotoxicity [14]) |
| --- | --- | --- | --- | --- | --- | --- | --- | --- | --- | --- | --- | --- | --- | --- |
| CCC(C)n1ncn(-c2ccc(N3CCN(c4ccc(OCC5COC(Cn6cncn6)(c6ccc(Cl)cc6Cl)O5)cc4)CC3)cc2)c1=O (centres undefined) [ITRACONAZOLE] | 1 | 1 | 0 | 1 | 1 | 0 | 7 | 0 | 0 | 1 | 0 | 1 | 0 | 1 |
| CNC1(c2ccccc2Cl)CCCCC1=O (centres undefined) [KETAMINE] | 0 | 0 | 0 | 0 | 0 | 0 | 0 | 0 | 0 | 0 | 0 | 0 | 0 | 0 |
| CC(=O)N1CCN(c2ccc(OCC3COC(Cn4ccnc4)(c4ccc(Cl)cc4Cl)O3)cc2)CC1 (centres undefined) [KETOCONAZOLE] | 0 | 0 | 0 | 0 | 0 | 0 | 0 | 0 | 0 | 0 | 0 | 0 | 0 | 0 |
| CC(C(=O)O)c1cccc(C(=O)c2ccccc2)c1 (centres undefined) [KETOPROFEN] | 1 | 1 | 0 | 0 | 0 | 0 | 2 | 0 | 0 | 0 | 0 | 0 | 0 | 0 |
| O=C(c1ccccc1)c1ccc2n1CCC2C(=O)O (centres undefined) [KETOROLAC] | 1 | 1 | 0 | 0 | 0 | 0 | 3 | 0 | 0 | 0 | 0 | 1 | 0 | 0 |
| CN1CCC(=C2c3ccccc3CC(=O)c3sccc32)CC1 [KETOTIFEN] | 1 | 0 | 0 | 0 | 0 | 0 | 1 | 0 | 0 | 0 | 0 | 0 | 0 | 0 |
